The numbers were not newly measured in US20210308436A1, “COMPLETE UPPER RESPIRATORY TRACT CLEANSING SYSTEM AND ITS USE” (priority 2013, published 2021), which cites them from elsewhere.

The test system of this data set is perennial allergic rhinitis. As to conditions: 1% solution in normal saline, once every 48 hours for 4 weeks, vs placebo wash (normal saline only).

Where a name gives a salt, the structure may show the parent alone.

For `CN[C@@H](C)[C@H](O)c1ccccc1` [ephedrine hydrochloride], the “peak nasal inspiratory flow rates” value is listed as “significant improvement” and the symptom scores result is given as “significant improvement”.
